Source: patent publication US20070073056A1, “4-Substituted Pyrazoline Compounds, their Preparation and Use as Medicaments” (LABORATORIOS DEL DR. ESTEVE, S.A., priority 2005, published 2007)
pIC50: −log10 of the molar value. Structures can show the parent of a compound that is named as a salt.

How the values were obtained:
CB1-receptor [1] = target: CB1-receptor (UniProt P20272); experiment: binding of the pyrazoline compounds to CB1-receptors (Pharmacological Methods, Part I); design: IC50; species or system human or rat; details: radioligand [3H]-CP55940, read-out: IC50
Protocol: (§1) I. In-vitro Determination of Affinity to CB1/CB2-Receptors
(§2) The in-vitro determination of the affinity of the inventive 4-substituted pyrazoline compounds to CB1/CB2-Rezeptors is carried out as described in the publication of Ruth A. Ross, Heather C. Brockie et al., “Agonist-inverse agonist characterisation at CB1 and CB2 cannabinoid receptors of L-759633, L759656 and AM630”, British Journal of Pharmacology, 126, 665-672, (1999), whereby the transfected human CB1 and CB2 receptors of Receptor Biology, Inc. are used. The radioligand used for both receptors is [^3H]-CP55940. The respective parts of the description is hereby incorporated by reference and forms part of the present disclosure.
(§3) Rat Cerebellum CB1 Binding
(§4) Binding affinity to CB1 receptor was evaluated according to a modification of the method described by Govaerts et al., Eur J Pharmac Sci 23, 233-243 (2004). The respective parts of the description is hereby incorporated by reference and forms part of the present disclosure.
(§5) Briefly, cerebellum from male wistar rats (250-300 g) were carefully dissected on ice and homogenates were prepared with Potter-Helveheim in a cold 50 mM Tris-HCl solution containing 5 mM MgCl2, 1 mM EDTA and 0.25 M sucrose, pH 7.4. The suspension was centrifuged at […] for 5 minutes. The supernatants were collected and centrifuged 50,000×g for 15 minutes. The resulting pellets were then resuspended in Tris-HCl buffer without sucrose, homogenized and incubated for 15 min at 37° C. in an orbital shaker bath and centrifuged again at 50,000×g for 15 min. Pellets were weighted, resuspended in Tris-HCl buffer without sucrose, homogenized with Ultraturrax at 13,500 rpm for 3×5 seconds and alicuoted in 0.9 ml volumes in Eppendorf tubes. Alicuotes were centrifuged at 20,800×g for 5 minutes, supernatants discarded and pellets were frozen at −80° C. until use. Total protein concentration was determined using the Bio-Rad Lowry method based kit. Competitive binding experiments were performed in presence of 1 nM [^3H]-CP 55,940 in siliconized glass tubes containing 100 μg protein/tube resuspended in 1 ml final volume of 50 mM Tris-HCl, 5 mM MgCl2, 1 mM EDTA, 0.5% (w/v) bovine serum albumin, pH 7.4. Compounds were present at various concentrations and the non specific binding was determined in the presence of 10 μM HU-210. After 1 hour incubation at 30° C., the suspension was rapidly filtered through 0.5% PEI pre-treated GF/B fiber filters on a 96-well harvester and washed 3 times with 3 ml ice-cold binding buffer without bovine serum albumin. Radioactivity on filters was measured with Wallac Winspectral 1414 counter by liquid scintillation in 6 ml Ecoscint H (National Diagnostics, U.K.). Assays were made in triplicates.
(§6) Binding data were analyzed by non-linear regression with the software GraphPad Prism Version 3.03.
(§7) The binding of the pyrazoline compounds of general formula I to CB1-receptors was determined according to the method described in the section Pharmacological Methods, Part I.

CB1-receptor [2] = target: CB1-receptor (UniProt P20272); experiment: as above; design: other: 10^−7 M; other: 10^−8 M; species or system human or rat
Protocol: as §1, §2, §3, §4, §5, §6, §7

| pIC50 (CB1-receptor [1]) | Inhibition (CB1-receptor [2]; 10^−7 M) [%] | Inhibition (CB1-receptor [2]; 10^−8 M, in %) | Compound |
| --- | --- | --- | --- |
| 7.28 | – | – | C[C@H]1C(C(=O)NN2CC3CCCC3C2)=NN(c2ccc(Cl)cc2Cl)[C@H]1c1ccc(Br)cc1 (relative stereo) [Example 213, cis-5-(4-bromophenyl)-1-(2,4-dichlorophenyl)-N-(hexahydrocyclopenta[c]pyrrol-2(1H)-yl)-4-methyl-4,5-dihydro-1H-pyrazole-3-carboxamide hydrochloride] |
| 7.11 | – | – | CC1CCN(NC(=O)C2=NN(c3ccc(Cl)cc3Cl)[C@@H](c3ccc(Cl)cc3)[C@H]2C)CC1 (relative stereo) [Example 9, cis-5-(4-Chloro-phenyl)-1-(2,4-dichloro-phenyl)-4-methyl-4,5-dihydro-1H-pyrazole-3-carboxylic acid (4-methyl-piperidin-1-yl)-amide] |
| 7.50 | – | – | C[C@H]1C(C(=O)NN2CC3CCCC3C2)=NN(c2ccc(Cl)cc2Cl)[C@H]1c1ccc(Cl)cc1 (relative stereo) [Example 108, cis-5-(4-Chlorophenyl)-1-(2,4-dichlorophenyl)-4-methyl-4,5-dihydro-1H-pyrazole-3-carboxylic acid (hexahydrocyclopenta[c]pyrrol-2-yl)-amide hydrochloride] |
| – | 44.3 | 9.6 | COc1ccc([C@@H]2[C@H](C)C(C(=O)N[C@H]3CCCC[C@@H]3O)=NN2c2ccc(Cl)cc2Cl)cc1 (mixture of isomers) [Example 282, (−)-cis-1-(2,4-dichlorophenyl)-N-((1S,2S)-2-hydroxycyclohexyl)-5-(4-methoxyphenyl)-4-methyl-4,5-dihydro-1H-pyrazole-3-carboxamide] |
| – | −23.3 | −27.3 | C[C@@H]1C(C(=O)NN2CCCCC2)=NN(c2ccc(Cl)cc2Cl)[C@H]1c1ccc(O)cc1 (relative stereo) [Example 344, trans-1-(2,4-dichlorophenyl)-5-(4-hydroxyphenyl)-4-methyl-N-(piperidin-1-yl)-4,5-dihydro-1H-pyrazole-3-carboxamide] |
| – | 38.5 | 14.8 | C[C@@H]1C(C(=O)NN2CCCCC2)=NN(c2ccc(Cl)cc2Cl)[C@@H]1c1ccc(F)cc1.Cl (relative stereo) [Example 417, cis-1-(2,4-dichlorophenyl)-5-(4-fluorophenyl)-4-methyl-N-(piperidin-1-yl)-4,5-dihydro-1H-pyrazole-3-carboxamide hydrochloride] |
| – | 30.4 | 2.8 | C[C@@H]1C(C(=O)NN2CCCCC2)=NN(c2ccc(Cl)cc2Cl)[C@@H]1c1ccc(Cl)cc1 [Example 420, (+)-cis-5-(4-chlorophenyl)-1-(2,4-dichlorophenyl)-4-methyl-N-(piperidin-1-yl)-4,5-dihydro-1H-pyrazole-3-carboxamide] |

The next lines start with the compound.

| Compound | pIC50 (CB1-receptor [1]) | Inhibition (CB1-receptor [2]; 10^−7 M) [%] | Inhibition (CB1-receptor [2]; 10^−8 M, in %) |
| --- | --- | --- | --- |
| C[C@H]1C(C(=O)NN2CCCCC2)=NN(c2ccc(Cl)cc2Cl)[C@H]1c1cc(Br)cs1 (relative stereo) [Example 75, cis-5-(4-Bromo-thiophen-2-yl)-1-(2,4-dichloro-phenyl)-4-methyl-4,5-dihydro-1H-pyrazole-3-carboxylic acid piperidin-1-ylamide] | 6.74 | – | – |
| C[C@H]1C(C(=O)NN2CCc3ccccc32)=NN(c2ccc(Cl)cc2Cl)[C@H]1c1ccc(Cl)cc1 (relative stereo) [Example 15, cis-5-(4-Chloro-phenyl)-1-(2,4-dichloro-phenyl)-4-methyl-4,5-dihydro-1H-pyrazole-3-carboxylic acid (2,3-dihydro-indol-1-yl)-amide] | 7.00 | – | – |
| C[C@@H]1C(C(=O)NN2CCCCC2)=NN(c2ccc(Cl)cc2Cl)[C@H]1c1ccc(Cl)s1 (relative stereo) [Example 426, trans-5-(5-chlorothiophen-2-yl)-1-(2,4-dichlorophenyl)-4-methyl-N-(piperidin-1-yl)-4,5-dihydro-1H-pyrazole-3-carboxamide hydrochloride] | 6.55 | – | – |
| C[C@H]1C(C(=O)NN2CCCCC2)=NN(c2ccc(Cl)cc2Cl)[C@@H]1c1ccc(Br)s1 (relative stereo) [Example 71, trans-5-(5-Bromo-thiophen-2-yl)-1-(2,4-dichloro-phenyl)-4-methyl-4,5-dihydro-1H-pyrazole-3-carboxylic acid piperidin-1-ylamide] | < 6.00 | – | – |
| C[C@@H]1C(C(=O)NN2CCCCC2)=NN(c2ccc(Cl)cc2Cl)[C@@H]1c1ccc(Cl)s1 (relative stereo) [Example 427, cis-5-(5-chlorothiophen-2-yl)-1-(2,4-dichlorophenyl)-4-methyl-N-(piperidin-1-yl)-4,5-dihydro-1H-pyrazole-3-carboxamide hydrochloride] | 6.80 | – | – |
| C[C@H]1C(C(=O)N2CCN(C3CCCCC3)CC2)=NN(c2ccc(Cl)cc2Cl)[C@H]1c1ccc(Cl)cc1 (relative stereo) [Example 5, cis-[5-(4-Chloro-phenyl)-1-(2,4-dichloro-phenyl)-4-methyl-4,5-dihydro-1H-pyrazol-3-yl]-(4-cyclohexyl-piperazin-1-yl)-methanone] | 6.70 | – | – |
| COc1ccc([C@H]2[C@@H](C)C(C(=O)O)=NN2c2ccc(Cl)cc2Cl)cc1 (racemic) [Example 261, cis-1-(2,4-dichlorophenyl)-5-(4-methoxyphenyl)-4-methyl-4,5-dihydro-1H-pyrazole-3-carboxylic acid] | – | −6.9 | −5 |
| COc1ccc([C@@H]2[C@@H](C)C(C(=O)O)=NN2c2ccc(Cl)cc2Cl)cc1 [Example 412, (4R,5S)-1-(2,4-dichlorophenyl)-5-(4-methoxyphenyl)-4-methyl-4,5-dihydro-1H-pyrazole-3-carboxylic acid] | – | −15.4 | −11.1 |
| C[C@@H]1C(C(=O)N[C@H]2CCCC[C@@H]2OCc2ccccc2)=NN(c2ccc(Cl)cc2Cl)[C@@H]1c1ccc(Cl)cc1 (mixture of isomers) [Example 409, (+)-cis-N-((1S,2S)-2-(benzyloxy)cyclohexyl)-5-(4-chlorophenyl)-1-(2,4-dichlorophenyl)-4-methyl-4,5-dihydro-1H-pyrazole-3-carboxamide] | – | −5.8 | −37 |
| C[C@@H]1C(C(=O)N[C@H]2C[C@H]3CC[C@]2(C)C3(C)C)=NN(c2ccc(Cl)cc2Cl)[C@@H]1c1ccc(Cl)cc1 (mixture of isomers) [Example 422, cis-5-(4-chlorophenyl)-1-(2,4-dichlorophenyl)-4-methyl-N-((1R,2S,4R)-1,7,7-trimethylbicyclo[2.2.1]heptan-2-yl)-4,5-dihydro-1H-pyrazole-3-carboxamide] | – | −2 | −8.4 |
| C[C@@H]1C(C(=O)O)=NN(c2ccccc2Cl)[C@@H]1c1ccc(Cl)s1 (relative stereo) [Example 363, cis-1-(2-chlorophenyl)-5-(5-chlorothiophen-2-yl)-4-methyl-4,5-dihydro-1H-pyrazole-3-carboxylic acid] | – | 11.3 | 12.2 |
| C[C@H]1C(C(=O)NN2CCc3ccccc32)=NN(c2ccc(Cl)cc2Cl)[C@H]1c1ccc(F)cc1 (relative stereo) [Example 235, cis-1-(2,4-dichlorophenyl)-5-(4-fluorophenyl)-N-(indolin-1-yl)-4-methyl-4,5-dihydro-1H-pyrazole-3-carboxamide] | – | 25.9 | 5.4 |
| COC[C@@H]1CCCN1NC(=O)C1=NN(c2ccc(Cl)cc2Cl)[C@H](c2ccc(Cl)cc2)[C@@H]1C.Cl (mixture of isomers) [Example 107, cis-5-(4-chlorophenyl)-1-(2,4-dichlorophenyl)-N-((S)-2-(methoxymethyl)pyrrolidin-1-yl)-4-methyl-4,5-dihydro-1H-pyrazole-3-carboxamide hydrochloride] | – | 43.9 | 2.7 |
| C[C@@H]1C(C(=O)NN2CCN(C3CCCC3)CC2)=NN(c2ccc(Cl)cc2Cl)[C@@H]1c1ccc(Cl)cc1.Cl (relative stereo) [Example 100, cis-5-(4-chlorophenyl)-N-(4-cyclopentylpiperazin-1-yl)-1-(2,4-dichlorophenyl)-4-methyl-4,5-dihydro-1H-pyrazole-3-carboxamide hydrochloride] | – | 32.6 | 5.4 |
